Assay results as given in US20250032625A1, “HETEROBIFUNCTIONAL MOLECULES AS TEAD INHIBITORS” (Merck Patent GmbH, priority 2021, published 2025).

Assays:
TEAD1 in SK-HEP1 cells = TEAD1 in SK-HEP1 cells (Homo sapiens (Human), UniProt P28347); test: TEAD degradation in SK-HEP1 cell line (immunofluorescence); assay type: cell-based; details: 24 hours, ranges, read-out: DC50 SK-HEP1
Method: (§1) Degradation of TEAD isoform TEAD1 by exemplary compounds which has been determined at different time points in two different cell lines, SK-HEP1 and NCI-H226: For the assay, SK-HEP1 (ATCC HTB-52) and NCI-H226 (ATCC CRL-5826) cells were treated in duplicates with the test compounds in a 10-point dose, 1:3 dilution steps, with the top concentration starting at 30 uM (final concentration in assay). After either 16 or 24 hour incubation at 37° C., 95% rH, and 5% CO2, the cells were fixed with 4% PFA and TEAD1 levels were probed using immunofluorescence. The primary antibody used was Anti-TEF1 (BD, 610293) and the secondary antibody used was Alexa Fluor® 488 Goat Anti-Mouse IgG (H+L) (Molecular Probes, A-11001). Finally, the cell nuclei were co-stained by Hoechst 33258 (Invitrogen, H-3569) and imaged using a high content imager. The amount of TEAD degradation was determined by quantifying the fluorescence intensity levels of Anti-TEF1 in each individual cell per well. DC50 was calculated using curve fitting software Genedata Screener. Cell media: The SK-HEP1 cells were cultured in the following media: MEM, +10% FCS, +1× GlutaMAX, +100 μM NEAA, +10 mM HEPES, +0.5% Pen/Strep. The NCI-H226 cells were cultured in the following media: RPMI 1640, +10% FBS, +1× GlutaMAX, +10 mM HEPES, +0.5% Pen/Strep.

TEAD1 in NCI-H226 cells = TEAD1 in NCI-H226 cells (Homo sapiens (Human), UniProt P28347); test: TEAD degradation in NCI-H226 cell line (immunofluorescence); assay type: cell-based; details: 24 hours, ranges, read-out: DC50 NCI-H226
Method: as §1

Chain of TEAD1 in NCI-H226 cells (P28347 whole entry): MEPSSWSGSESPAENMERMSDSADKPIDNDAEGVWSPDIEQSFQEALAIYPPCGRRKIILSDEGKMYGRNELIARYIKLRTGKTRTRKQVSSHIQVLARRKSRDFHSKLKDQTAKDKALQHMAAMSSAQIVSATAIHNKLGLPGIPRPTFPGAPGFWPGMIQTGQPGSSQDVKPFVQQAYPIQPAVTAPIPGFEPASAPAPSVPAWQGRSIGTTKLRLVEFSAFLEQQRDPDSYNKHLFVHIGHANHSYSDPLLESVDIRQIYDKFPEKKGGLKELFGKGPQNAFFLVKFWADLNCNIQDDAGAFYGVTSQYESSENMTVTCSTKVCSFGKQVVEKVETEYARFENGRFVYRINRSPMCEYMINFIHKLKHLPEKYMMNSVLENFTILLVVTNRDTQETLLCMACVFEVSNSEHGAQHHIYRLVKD
Chain of TEAD1 in SK-HEP1 cells (P28347 whole entry, canonical isoform): as the sequence (P28347 whole entry) above

Row | Structure (SMILES) | DC50 (TEAD1 in SK-HEP1 cells) [nM] | DC50 (TEAD1 in NCI-H226 cells) [nM]
1 | Cc1ncsc1-c1ccc(CNC(=O)[C@@H]2C[C@@H](O)CN2C(=O)[C@@H](NC(=O)CCCOCCOCCOCCOCCNC(=O)c2ccc3c(c2)c2cn(C)nc2n3-c2ccc(C(F)(F)F)cc2)C(C)(C)C)cc1 [Compound 57, [(2S)-3,3-dimethyl-2-[1-({2-methyl-8-[4-(trifluoromethyl)phenyl]-2H,8H-pyrazolo[3,4-b]indol-5-yl}formamido)-3,6,9,12-tetraoxahexadecan-16-amido]butanoyl]-4-hydroxy-N-{[4-(4-methyl-1,3-thiazol-5-yl)phenyl]-methyl}pyrrolidine-2-carboxamide] | 1000 to 3000 | 1000 to 3000
2 | Cc1ncsc1-c1ccc(CNC(=O)[C@@H]2C[C@@H](O)CN2C(=O)[C@@H](NC(=O)CCOCCC(=O)NCCOCCOCCNC(=O)c2ccc3c(c2)c2cn(C)nc2n3-c2ccc(C(F)(F)F)cc2)C(C)(C)C)cc1 [Compound 61, (2S,4R)-1-[(2S)-3,3-dimethyl-2-(3-{2-[(2-{2-[2-({2-methyl-8-[4-(trifluoro-methyl)phenyl]-2H,8H-pyrazolo[3,4-b]indol-5-yl}formamido)-ethoxy]ethoxy}ethyl)carbamoyl]ethoxy}propanamido)butanoyl]-4-hydroxy-N-{[4-(4-methyl-1,3-thiazol-5-yl)phenyl]methyl}pyrrolidine-2-carboxamide] | 3000 to 9000 | 3000 to 9000
3 | CCNC(=O)[C@H](Cc1ccccc1)NC(=O)[C@@H]1CCCN1C(=O)[C@@H](NC(=O)[C@H](C)NCCCCCCNC(=O)c1ccc2c(c1)c1cn(C)nc1n2-c1ccc(C(F)(F)F)cc1)C1CCCCC1 [Compound 73, (2S)-2-{[(2S)-1-[(2S)-2-cyclohexyl-2-[(2S)-2-{[6-({2-methyl-8-[4-(trifluoro-methyl)phenyl]-2H,8H-pyrazolo[3,4-b]indol-5-yl}formamido)hexyl]amino}-propanamido]acetyl]pyrrolidin-2-yl]formamido}-N-ethyl-3-phenylpropan-amide] | 3000 to 9000 | 9000 to 30000
4 | Cc1ncsc1-c1ccc([C@H](C)NC(=O)[C@@H]2C[C@@H](O)CN2C(=O)[C@@H](NC(=O)CCCCCc2cn(CCCCOCCNC(=O)c3ccc4c(c3)c3cn(C)nc3n4-c3ccc(C(F)(F)F)cc3)nn2)C(C)(C)C)cc1 [Compound 82, (2S,4R)-1-[(2S)-3,3-dimethyl-2-[6-(1 {4-[2-({2-methyl-8-[4-(trifluoro-methyl)phenyl]-2H,8H-pyrazolo[3,4-b]indol-5-yl}formamido)ethoxy]butyl}-1H-1,2,3-triazol-4-yl)hexanamido]butanoyl]-4-hydroxy-N-[(1S)-1-[4-(4-methyl-1,3-thiazol-5-yl)phenyl]ethyl]pyrrolidine-2-carboxamide] | 100 to 1000 | 100 to 1000
5 | Cn1cc2c3cc(C(=O)NCCOCCOCCOCCOCCOc4ccc5c(c4)C(=O)N(C4CCC(=O)NC4=O)C5=O)ccc3n(-c3ccc(C(F)(F)F)cc3)c2n1 (stereo not shown) [Compound 88, N-(14-{[2-(2,6-dioxopiperidin-3-yl)-1,3-dioxo-2,3-dihydro-1H-isoindol-5-yl]oxy}-3,6,9,12-tetraoxatetradecan-1-yl)-2-methyl-8-[4-(trifluoromethyl)phenyl]-2H,8H-pyrazolo[3,4-b]indole-5-carboxamide] | 100 to 1000 | 100 to 1000
6 | Cn1nc2c3cc(C(=O)NCCOCCOCCOCCOCCNc4cccc5c4C(=O)N(C4CCC(=O)NC4=O)C5=O)ccc3n([C@H]3CC[C@H](C(F)(F)F)CC3)c2n1 (stereo partly shown) [Compound 95, N-(14-{[2-(2,6-dioxopiperidin-3-yl)-1,3-dioxo-2,3-dihydro-1H-isoindol-4-yl]amino}-3,6,9,12-tetraoxatetradecan-1-yl)-2-methyl-4-[(1r,4r)-4-(trifluoromethyl)cyclohexyl]-2H,4H-[1,2,3]triazolo[4,5-b]indole-7-carboxamide] | 100 to 1000 | 100 to 1000

Further lines, results first:

Row | DC50 (TEAD1 in SK-HEP1 cells) [nM] | DC50 (TEAD1 in NCI-H226 cells) [nM] | Structure (SMILES)
7 | 100 to 1000 | 100 to 1000 | Cc1ncsc1-c1ccc(CNC(=O)[C@@H]2C[C@@H](O)CN2C(=O)[C@@H](NC(=O)CCCCCC(=O)N(C)CCOCCOCCNC(=O)c2ccc3c(c2)c2cn(C)nc2n3-c2ccc(C(F)(F)F)cc2)C(C)(C)C)cc1 [Compound 53, N-[(2S)-1-[(2S,4R)-4-hydroxy-2-({[4-(4-methyl-1,3-thiazol-5-yl)phenyl]-methyl}carbamoyl)pyrrolidin-1-yl]-3,3-dimethyl-1-oxobutan-2-yl]-N′-methyl-N′-(2-{2-[2-({2-methyl-8-[4-(trifluoromethyl)phenyl]-2H,8H-pyrazolo[3,4-b]indol-5-yl}formamido)ethoxy]ethoxy}ethyl) heptanediamide]
8 | 100 to 1000 | 100 to 1000 | Cc1ncsc1-c1ccc(CNC(=O)[C@@H]2C[C@@H](O)CN2C(=O)[C@@H](NC(=O)CCCCCC(=O)NCCOCCOCCNC(=O)c2ccc3c(c2)c2nn(C)nc2n3-c2ccc(C(F)(F)F)cn2)C(C)(C)C)cc1 [Compound 55, N-[(2S)-1-[(2S,4R)-4-hydroxy-2-({[4-(4-methyl-1,3-thiazol-5-yl)phenyl]methyl}carbamoyl)pyrrolidin-1-yl]-3,3-dimethyl-1-oxobutan-2-yl]-N′-(2-{2-[2-({2-methyl-4-[5-(trifluoromethyl)pyridin-2-yl]-2H,4H-[1,2,3]triazolo[4,5-b]indol-7-yl}formamido)ethoxy]ethoxy}ethyl)-heptanediamide]
9 | 100 to 1000 | 100 to 1000 | Cc1ncsc1-c1ccc(CNC(=O)[C@@H]2C[C@@H](O)CN2C(=O)[C@@H](NC(=O)CCCCCCCCCOCCOCCNC(=O)c2ccc3c(c2)c2cn(C)nc2n3-c2ccc(C(F)(F)F)cc2)C(C)(C)C)cc1 [Compound 56]
10 | 100 to 1000 | 100 to 1000 | Cc1ncsc1-c1ccc(CNC(=O)[C@@H]2C[C@@H](O)CN2C(=O)[C@@H](NC(=O)CCCCCCOCCOCCOCCNC(=O)c2ccc3c(c2)c2cn(C)nc2n3-c2ccc(C(F)(F)F)cc2)C(C)(C)C)cc1 [Compound 60, (2S,4R)-1-[(2S)-3,3-dimethyl-2-[7-(2-{2-[2-({2-methyl-8-[4-(trifluoro-methyl)phenyl]-2H,8H-pyrazolo[3,4-b]indol-5-yl}formamido)ethoxy]-ethoxy}ethoxy)heptanamido]butanoyl]-4-hydroxy-N-{[4-(4-methyl-1,3-thiazol-5-yl)phenyl]methyl}pyrrolidine-2-carboxamide]
11 | 100 to 1000 | 1000 to 3000 | Cc1ncsc1-c1ccc(CNC(=O)[C@@H]2C[C@@H](O)CN2C(=O)[C@@H](NC(=O)COCCCOCCOCCNC(=O)c2ccc3c(c2)c2cn(C)nc2n3-c2ccc(C(F)(F)F)cc2)C(C)(C)C)cc1 [Compound 74, (2S,4R)-1-[(2S)-3,3-dimethyl-2-[2-(3-{2-[2-({2-methyl-8-[4-(trifluoro-methyl)phenyl]-2H,8H-pyrazolo[3,4-b]indol-5-yl}formamido)ethoxy]-ethoxy}propoxy)acetamido]butanoyl]-4-hydroxy-N-{[4-(4-methyl-1,3-thiazol-5-yl)phenyl]methyl}pyrrolidine-2-carboxamide]
12 | < 100 | 100 to 1000 | CN(CCOCCOCCOCCOCCNC(=O)c1ccc2c(c1)c1cn(C)nc1n2-c1ccc(C(F)(F)F)cc1)c1cccc2c1C(=O)N(C1CCC(=O)NC1=O)C2=O (stereo not shown) [Compound 80, N-{2-[2-(2,6-dioxopiperidin-3-yl)-1,3-dioxo-2,3-dihydro-1H-isoindol-4-yl]-5,8,11,14-tetraoxa-2-azahexadecan-16-yl}-2-methyl-8-[4-(trifluoromethyl)phenyl]-2H,8H-pyrazolo[3,4-b]indole-5-carboxamide]
13 | < 100 | < 100 | Cn1cc2c3cc(C(=O)NCCOCCOCCOCCOCCOCCOCCNc4cccc5c4C(=O)N(C4CCC(=O)NC4=O)C5=O)ccc3n(-c3ccc(C(F)(F)F)cc3)c2n1 (stereo not shown) [Compound 87, N-(20-{[2-(2,6-dioxopiperidin-3-yl)-1,3-dioxo-2,3-dihydro-1H-isoindol-4-yl]amino}-3,6,9,12,15,18-hexaoxaicosan-1-yl)-2-methyl-8-[4-(trifluoromethyl)phenyl]-2H,8H-pyrazolo[3,4-b]indole-5-carboxamide]
14 | < 100 | 100 to 1000 | Cn1cc2c3cc(C(=O)NCCOCCOCCOCCOCCNc4cccc5c4C(=O)N(C4CCC(=O)NC4=O)C5=O)ccc3n(CC3CCC(C(F)(F)F)CC3)c2n1 (stereo not shown) [Compound 99, N-(14-{[2-(2,6-dioxopiperidin-3-yl)-1,3-dioxo-2,3-dihydro-1H-isoindol-4-yl]amino}-3,6,9,12-tetraoxatetradecan-1-yl)-2-methyl-8-{[4-(trifluoromethyl)cyclohexyl]methyl}-2H,8H-pyrazolo[3,4-b]indole-5-carboxamide]
